Measurements taken from ChEMBL document CHEMBL4680113, “Tigliane Diterpenoids as a New Type of Antiadipogenic Agents Inhibit GRα-Dexras1 Axis in Adipocytes” (J Med Chem, 2019).
Activity calls are given as the source filed them. No cut-off for these calls is given here.

Legend:
[1] = system: 3T3-L1; assay: Inhibition of adipogenic cocktail-induced C/EBPbeta protein expression in mouse 3T3-L1 cells incubated for 24 hrs by Western blot analysis; format: functional, cell-based
[2] = system: 3T3-L1; assay: Lipid lowering activity in mouse 3T3-L1 cells assessed as reduction in adipogenic cocktail-induced triglyceride levels at 10 uM incubated for 6 days by GPO-POD assay; format: functional; conditions: 3T3-L1, 144 h, time 6 day
[3] = system: 3T3-L1; assay: Lipid lowering activity in mouse 3T3-L1 cells assessed as reduction in adipogenic cocktail-induced triglyceride levels at 1 uM incubated for 6 days by GPO-POD assay; format: functional, cell-based; conditions: time 6.0 day
[4] = system: 3T3-L1; assay: Lipid lowering activity in mouse 3T3-L1 cells assessed as reduction in adipogenic cocktail-induced triglyceride levels at 1 to 10 uM by Oil-Red O staining; format: functional, cell-based; conditions: dose 1-10 µM
[5] = system: 3T3-L1; assay: Lipid lowering activity in mouse 3T3-L1 cells assessed as reduction in adipogenic cocktail-induced triglyceride levels incubated for 6 days by GPO-POD assay; format: functional, cell-based; conditions: for EC50: 3T3-L1, 144 h; for inhibition: time 6.0 day
[6] = Toxicity in mouse 3T3-L1 cells assessed as reduction in cell viability incubated for 6 days by MTT assay; format: cell-based
[7] = Selectivity index, ratio of IC50 for cytotoxicity against mouse 3T3-L1 cells to EC50 for lipid lowering activity in mouse 3T3-L1 cells
[8] = system: HEK293; assay: Toxicity in HEK293 cells assessed as reduction in cell viability at 10 uM incubated for 6 days by MTT assay; format: cell-based; conditions: human, hek293, 144 h, time 6 day
[9] = system: HepG2; assay: Lipid lowering activity in human HepG2 cells assessed as reduction in high-glucose induced triglyceride levels at 10 uM incubated for 24 hrs by GPO-POD assay; format: functional, cell-based
[10] = system: HepG2; assay: Lipid lowering activity in human HepG2 cells assessed as reduction in high-glucose induced triglyceride levels at 1 uM incubated for 24 hrs by GPO-POD assay; format: functional, cell-based
[11] = system: 3T3-L1; assay: Inhibition of cell differentiation in mouse 3T3-L1 cells assessed as reduction in adipogenic cocktail-induced triglyceride levels at 1 uM incubated for 0 to 6 days by GPO-POD assay; format: functional, cell-based; conditions: time 0-6 day
[12] = system: 3T3-L1; assay: Inhibition of cell differentiation in mouse 3T3-L1 cells assessed as reduction in adipogenic cocktail-induced triglyceride levels at 1 uM incubated for 0 to 3 days by Oil-Red O staining; format: functional, cell-based; conditions: time 0-3 day
[13] = system: 3T3-L1; assay: Inhibition of cell differentiation in mouse 3T3-L1 cells assessed as reduction in adipogenic cocktail-induced triglyceride levels at 1 uM incubated for 0 to 6 days by Oil-Red O staining; format: functional, cell-based; conditions: time 0-6 day
[14] = system: 3T3-L1; assay: Inhibition of cell differentiation in mouse 3T3-L1 cells assessed as reduction in adipogenic cocktail-induced triglyceride levels at 1 uM incubated for 0 to 9 days by Oil-Red O staining; format: functional, cell-based; conditions: time 0-9 day
[15] = system: 3T3-L1; assay: Inhibition of adipogenic cocktail-induced C/EBPbeta mRNA expression in mouse 3T3-L1 cells incubated for 24 hrs by RT-qPCR analysis; format: functional, cell-based
[16] = system: 3T3-L1; assay: Inhibition of adipogenic cocktail-induced C/EBPdelta mRNA expression in mouse 3T3-L1 cells incubated for 24 hrs by RT-qPCR analysis; format: functional, cell-based
[17] = system: 3T3-L1; assay: Inhibition of adipogenic cocktail-induced C/EBPalpha protein expression in mouse 3T3-L1 cells incubated for 24 hrs by Western blot analysis; format: functional, cell-based
[18] = system: 3T3-L1; assay: Inhibition of adipogenic cocktail-induced C/EBPdelta protein expression in mouse 3T3-L1 cells incubated for 24 hrs by Western blot analysis; format: functional, cell-based
[19] = system: 3T3-L1; assay: Inhibition of adipogenic cocktail-induced PPARgamma protein expression in mouse 3T3-L1 cells incubated for 24 hrs by Western blot analysis; format: functional, cell-based
[20] = system: 3T3-L1; assay: Inhibition of adipogenic cocktail-induced SCD1 mRNA expression in mouse 3T3-L1 cells incubated for 6 days by RT-qPCR analysis; format: functional, cell-based; conditions: time 6.0 day
[21] = system: 3T3-L1; assay: Inhibition of adipogenic cocktail-induced ACC mRNA expression in mouse 3T3-L1 cells incubated for 6 days by RT-qPCR analysis; format: functional, cell-based; conditions: time 6.0 day
[22] = system: 3T3-L1; assay: Inhibition of adipogenic cocktail-induced FAS mRNA expression in mouse 3T3-L1 cells incubated for 6 days by RT-qPCR analysis; format: functional, cell-based; conditions: time 6.0 day
[23] = system: 3T3-L1; assay: Inhibition of adipogenic cocktail-induced SCD1 protein expression in mouse 3T3-L1 cells incubated for 6 days by Western blot analysis; format: functional, cell-based; conditions: time 6.0 day
[24] = system: 3T3-L1; assay: Inhibition of adipogenic cocktail-induced ACC protein expression in mouse 3T3-L1 cells incubated for 6 days by Western blot analysis; format: functional, cell-based; conditions: time 6.0 day
[25] = system: 3T3-L1; assay: Inhibition of adipogenic cocktail-induced FAS protein expression in mouse 3T3-L1 cells incubated for 6 days by Western blot analysis; format: functional, cell-based; conditions: time 6.0 day
[26] = system: 3T3-L1; assay: Inhibition of GR-alpha in mouse 3T3-L1 cells assessed as reduction in adipogenic cocktail-induced Dexras1 protein expression incubated for 0.5 to 24 hrs by Western blot analysis; format: cell-based; conditions: time 0.5-24 hrs
[27] = system: 3T3-L1; assay: Inhibition of adipogenic cocktail-induced C/EBP-beta protein expression in mouse 3T3-L1 cells at 1 to 10 uM incubated for 0.5 hrs by Western blot analysis; format: functional, cell-based; conditions: dose 1-10 µM
[28] = system: 3T3-L1; assay: Inhibition of adipogenic cocktail-induced C/EBP-delta protein expression in mouse 3T3-L1 cells at 1 to 10 uM incubated for 0.5 hrs by Western blot analysis; format: functional, cell-based; conditions: dose 1-10 µM
[29] = system: 3T3-L1; assay: Inhibition of adipogenic cocktail-induced GR-beta protein expression in mouse 3T3-L1 cells at 1 to 10 uM incubated for 4 to 24 hrs by Western blot analysis; format: functional, cell-based; conditions: dose 1-10 µM, time 4-24 hrs
[30] = system: 3T3-L1; assay: Inhibition of adipogenic cocktail-induced GR-alpha nuclear translocation in mouse 3T3-L1 cells at 1 uM after 8 hrs by immunofluorescence assay; format: cell-based
[31] = system: 3T3-L1; assay: Inhibition of adipogenic cocktail-induced GR-beta nuclear translocation in mouse 3T3-L1 cells at 1 uM after 8 hrs by immunofluorescence assay; format: cell-based
[32] = system: 3T3-L1; assay: Lipid lowering activity in mouse 3T3-L1 cells assessed as reduction in adipogenic cocktail induced triglyceride levels at 1 uM incubated for 6 days in presence of GR-alpha siRNA by GPO-POD assay; format: functional, cell-based; conditions: time 6.0 day
[33] = system: 3T3-L1; assay: Inhibition of adipogenic cocktail-induced C/EBP-alpha mRNA expression in mouse 3T3-L1 cells at 1 uM after 1 day in presence of GR-alpha siRNA by RT-qPCR analysis; format: functional, cell-based
[34] = system: 3T3-L1; assay: Inhibition of adipogenic cocktail-induced PPARgamma mRNA expression in mouse 3T3-L1 cells at 1 uM after 1 day in presence of GR-alpha siRNA by RT-qPCR analysis; format: functional, cell-based
[35] = system: 3T3-L1; assay: Inhibition of adipogenic cocktail-induced FAS mRNA expression in mouse 3T3-L1 cells at 1 uM after 6 days in presence of GR-alpha siRNA by RT-qPCR analysis; format: functional, cell-based; conditions: time 6.0 day
[36] = system: 3T3-L1; assay: Inhibition of adipogenic cocktail-induced ACC mRNA expression in mouse 3T3-L1 cells at 1 uM after 6 days in presence of GR-alpha siRNA by RT-qPCR analysis; format: functional, cell-based; conditions: time 6.0 day
[37] = system: 3T3-L1; assay: Inhibition of GR-alpha in mouse 3T3-L1 cells assessed as reduction in GR-alpha interaction with C/EBP-beta at 1 uM incubated for 8 hrs by ChIP assay; format: cell-based
[38] = system: 3T3-L1; assay: Inhibition of GR-alpha in mouse 3T3-L1 cells assessed as reduction in GR-alpha interaction with PPAR-gamma at 1 uM incubated for 8 hrs by ChIP assay; format: cell-based

SMILES | inhibition [1] | inhibition at 10 µM [2] [%] | inhibition [3] | inhibition [4] | EC50 [5] [nM] | inhibition [5] | IC50 at 6 days [6] [nM] | Selectivity Index [7] | Activity [8] | inhibition [9] | inhibition [10] | inhibition [11] | inhibition [12] | inhibition [13] | inhibition [14] | inhibition [15] | inhibition [16] | inhibition [17] | inhibition [18] | inhibition [19] | also measured
CC1=C[C@@H]2[C@@H](C1=O)[C@H](O)C(C)=C[C@H]1[C@@H]3C(C)(C)[C@]3(OC(=O)C(C)C)[C@H](OC(=O)c3ccccc3)[C@@H](C)[C@]21O | Dose-dependent effect | > 50 | Active | Active | 610 | Dose-dependent effect | 17200 | 28 | Non-Toxic | Active | Active | inactive | Active | inactive | inactive | Dose-dependent effect | Dose-dependent effect | Dose-dependent effect | Dose-dependent effect | Dose-dependent effect | inhibition [20]: Dose-dependent effect; inhibition [21]: Dose-dependent effect; inhibition [22]: Dose-dependent effect; inhibition [23]: Dose-dependent effect; inhibition [24]: Dose-dependent effect; inhibition [25]: Dose-dependent effect; inhibition [26]: Dose-dependent effect; inhibition [27]: inactive; inhibition [28]: inactive; inhibition [29]: inactive; inhibition [30]: Active; inhibition [31]: inactive; inhibition [32]: Active; inhibition [33]: Active; inhibition [34]: Active; inhibition [35]: Active; inhibition [36]: Active; inhibition [37]: Active; inhibition [38]: Active
CC(=O)O[C@@H]1C(C)=C[C@H]2[C@@H]3C(C)(C)[C@]3(OC(=O)C(C)C)[C@H](OC(=O)c3ccccc3)[C@@H](C)[C@]2(O)[C@@H]2C=C(C)C(=O)[C@@H]12 | Dose-dependent effect | > 50 | Active | Active | 320 | Dose-dependent effect | > 100000 | >312 | Non-Toxic | Active | Active | inactive | Active | inactive | inactive | Dose-dependent effect | Dose-dependent effect | Dose-dependent effect | Dose-dependent effect | Dose-dependent effect | inhibition [20]: Dose-dependent effect; inhibition [21]: Dose-dependent effect; inhibition [22]: Dose-dependent effect; inhibition [23]: Dose-dependent effect; inhibition [24]: Dose-dependent effect; inhibition [25]: Dose-dependent effect; inhibition [26]: Dose-dependent effect; inhibition [27]: inactive; inhibition [28]: inactive; inhibition [29]: inactive; inhibition [30]: Active; inhibition [31]: inactive; inhibition [32]: Active; inhibition [33]: Active; inhibition [34]: Active; inhibition [35]: Active; inhibition [36]: Active; inhibition [37]: Active; inhibition [38]: Active
